According to ChEMBL document CHEMBL3352773, “Synthesis and evaluation of the 2,4-diaminoquinazoline series as anti-tubercular agents” (Bioorg Med Chem, 2014):

Experiments:
Assay type in all cases: functional
[1] = system: Mycobacterium tuberculosis; experiment: Antituberculosis activity against Mycobacterium tuberculosis H37Rv RM1 IS6110 at nt 801 mutant assessed as complete growth inhibition after 5 days
[2] = system: Mycobacterium tuberculosis; experiment: Antituberculosis activity against Mycobacterium tuberculosis H37Rv RM2 GT deletion at 175 to 176 mutant assessed as complete growth inhibition after 5 days
[3] = system: Mycobacterium tuberculosis; experiment: Antituberculosis activity against Mycobacterium tuberculosis H37Rv RM7 C115W mutant assessed as complete growth inhibition after 5 days

Measured: MIC

FC(F)(F)c1ccc(CNc2nc(N3CCCCC3)nc3ccccc23)cc1
25 µM: all assays above
